This passage reports AC50, IC50 and EC50 results from ChEMBL document CHEMBL1201862, “PubChem BioAssay data set” (2004).

The target in series [1] is Cytochrome P450 3A4 (Homo sapiens, UniProt P08684).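 Further: CYP3A4 tested as one member of a cytochrome P450 panel screen.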
Series [2] concerns the target T1, Cytochrome P450 2C9 (Homo sapiens, UniProt P11712).
Series [3] in a line: insulin promoter down-regulators in MIN6 cells, imaging, high-content screening, mouse beta cells (AID 1628). The class given is functional.
Series [4] concerns the target T2, Ubiquitin-conjugating enzyme E2 N (Homo sapiens, UniProt P61088).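 Further: Dose-response confirmation in a TR-FRET assay detecting UBC13-driven polyubiquitin chain formation, inhibition measured.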
T2 sequence (P61088 whole entry): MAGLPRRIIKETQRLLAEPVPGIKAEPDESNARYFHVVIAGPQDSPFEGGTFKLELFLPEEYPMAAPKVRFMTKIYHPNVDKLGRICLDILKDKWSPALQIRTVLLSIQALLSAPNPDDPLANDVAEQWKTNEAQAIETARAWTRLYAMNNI
The class given is functional.

Series [5] addresses T3, Protein RecA (Mycobacterium tuberculosis, UniProt P9WHJ3).
T3 sequence (P9WHJ3 whole entry): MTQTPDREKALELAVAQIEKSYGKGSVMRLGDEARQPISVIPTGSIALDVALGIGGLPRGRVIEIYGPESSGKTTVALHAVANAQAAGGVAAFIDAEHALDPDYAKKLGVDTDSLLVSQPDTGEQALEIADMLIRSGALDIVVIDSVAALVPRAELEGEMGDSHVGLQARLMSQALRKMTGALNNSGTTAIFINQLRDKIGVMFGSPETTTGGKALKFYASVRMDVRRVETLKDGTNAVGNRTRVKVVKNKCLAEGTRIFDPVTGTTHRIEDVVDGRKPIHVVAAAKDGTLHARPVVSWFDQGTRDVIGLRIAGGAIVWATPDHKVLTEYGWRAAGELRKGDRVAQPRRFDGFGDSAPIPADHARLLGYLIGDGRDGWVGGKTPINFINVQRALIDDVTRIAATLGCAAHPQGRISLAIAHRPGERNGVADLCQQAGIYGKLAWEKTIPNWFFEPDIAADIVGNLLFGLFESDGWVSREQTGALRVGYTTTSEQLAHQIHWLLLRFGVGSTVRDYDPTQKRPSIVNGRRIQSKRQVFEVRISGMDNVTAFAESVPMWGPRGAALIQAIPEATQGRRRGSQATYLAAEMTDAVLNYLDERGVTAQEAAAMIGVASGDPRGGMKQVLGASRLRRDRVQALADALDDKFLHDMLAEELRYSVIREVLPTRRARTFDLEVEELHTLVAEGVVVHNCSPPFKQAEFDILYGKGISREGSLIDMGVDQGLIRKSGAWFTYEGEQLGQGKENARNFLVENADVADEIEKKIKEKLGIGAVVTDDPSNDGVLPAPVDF
The series can be described thus: Fluorescence Cell-Free Homogeneous Dose Retest to Identify Inhibitors of RecA-Intein Splicing Activity. [Related pubchem assays (depositor defined):AID2097, AID2223, AID489010, AID492950]. Type of series: functional.

For series [6], the system named is INS1. Description: beta cell apoptosis inhibitors, cytokine rescue, dose response, luminescence, retest (AID 449756).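 Further: cell death triggered by IL-1 beta plus TNF-alpha plus IFN-gamma mixture; protective hits raise ATP signal compared with cytokine alone wells.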 Type of series: functional, cell-based. As to conditions: Rattus norvegicus.
In series [7] the target is T4, Replicative DNA helicase DnaB (Mycobacterium tuberculosis, UniProt P9WMR3).
T4 sequence (P9WMR3 whole entry): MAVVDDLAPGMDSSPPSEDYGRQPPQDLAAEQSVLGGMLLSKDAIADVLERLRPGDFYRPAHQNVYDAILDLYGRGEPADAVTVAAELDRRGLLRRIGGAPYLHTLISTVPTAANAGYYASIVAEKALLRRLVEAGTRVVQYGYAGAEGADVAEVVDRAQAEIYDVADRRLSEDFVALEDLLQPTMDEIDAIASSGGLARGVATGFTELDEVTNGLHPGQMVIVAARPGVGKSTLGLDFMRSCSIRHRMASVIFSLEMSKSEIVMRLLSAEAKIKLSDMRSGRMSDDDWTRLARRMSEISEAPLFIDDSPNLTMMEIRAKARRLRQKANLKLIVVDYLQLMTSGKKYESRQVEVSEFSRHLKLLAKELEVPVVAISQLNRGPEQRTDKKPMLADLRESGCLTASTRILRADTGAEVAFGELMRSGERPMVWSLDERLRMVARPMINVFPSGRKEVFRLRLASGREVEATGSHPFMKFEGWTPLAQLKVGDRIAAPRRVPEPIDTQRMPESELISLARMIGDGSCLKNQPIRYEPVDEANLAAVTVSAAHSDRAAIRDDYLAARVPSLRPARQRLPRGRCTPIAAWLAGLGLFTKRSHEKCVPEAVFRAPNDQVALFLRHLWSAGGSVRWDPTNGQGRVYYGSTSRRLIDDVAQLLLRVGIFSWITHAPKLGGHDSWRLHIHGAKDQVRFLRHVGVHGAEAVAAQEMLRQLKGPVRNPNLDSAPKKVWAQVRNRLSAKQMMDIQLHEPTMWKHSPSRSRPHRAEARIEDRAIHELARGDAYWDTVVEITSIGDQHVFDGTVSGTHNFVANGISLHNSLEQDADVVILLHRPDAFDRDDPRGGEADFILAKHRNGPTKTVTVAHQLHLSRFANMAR
Description: DnaB intein splicing inhibitors, dose response, biochemical, cell-free fluorescence (AID 449749). The class given is functional.

Series [8] is described as follows: cytotoxicity in MIN6 insulinoma cells, dose response, cytotoxicity control, cell-based, mouse insulinoma (AID 2122).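 Further: confirmatory high-throughput counterscreen run to flag cytotoxic compounds; mouse MIN-6 beta cells carrying an insulin promoter eGFP reporter.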 Type of series: functional.
Series [9] relates to A-375. Description: A375 melanoma cell viability reduction, dose response, counter-screen for MITF modulator project, cherry-pick samples, set 2 (AID 540335). Type of series: functional, cell-based. As to conditions: Homo sapiens.
Series [10] can be described thus: growth suppression of PTEN-null colon cells, dose response, cell-based, HCT116 PTEN knockout (AID 1047).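 Further: HCT116 colon tumor cells with PTEN knocked out; cells exposed to compound for 60 hours before readout; potency for loss of cell viability measured by luminescence.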 The class given is functional.
Series [11] has as its target T5, Microphthalmia-associated transcription factor (Homo sapiens, UniProt O75030).
T5 sequence (O75030 whole entry): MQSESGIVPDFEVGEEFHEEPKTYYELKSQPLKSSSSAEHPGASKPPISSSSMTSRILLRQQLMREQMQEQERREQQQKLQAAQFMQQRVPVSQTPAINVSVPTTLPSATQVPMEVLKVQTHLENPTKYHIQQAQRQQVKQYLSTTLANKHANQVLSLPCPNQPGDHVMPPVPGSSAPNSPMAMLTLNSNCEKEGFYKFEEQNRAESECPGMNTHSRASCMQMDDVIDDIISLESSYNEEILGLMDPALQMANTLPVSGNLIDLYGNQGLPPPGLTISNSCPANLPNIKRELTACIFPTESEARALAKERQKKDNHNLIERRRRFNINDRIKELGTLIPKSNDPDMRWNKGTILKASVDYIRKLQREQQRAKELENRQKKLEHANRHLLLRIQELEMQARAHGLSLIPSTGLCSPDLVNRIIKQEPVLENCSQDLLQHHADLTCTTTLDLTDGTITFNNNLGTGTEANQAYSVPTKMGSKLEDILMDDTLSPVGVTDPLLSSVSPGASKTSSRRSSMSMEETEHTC
Description: TRPM1 promoter luciferase signal decrease, dose response, MITF inhibitor project, cell-based, SK-MEL-5, cherry-picked, set 3 (AID 493073).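 Further: SK-MEL-5 melanoma cells with luciferase driven by the MITF target TRPM1 promoter.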 The class given is functional.

The nature of series [12]: growth suppression of beta-catenin-knockout colon cells, dose response, cell-based, HCT116, human colon tumor (AID 1045).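 Further: HCT116 colon tumor cells with beta catenin knocked out; cells exposed to compound for 60 hours.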 Type of series: functional.
A short description of series [13]: Luminescence Cell-Based Dose Retest to Confirm Inhibitors of Cancer Stem Cells. [Related pubchem assays (depositor defined):AID2717, AID2721]. Type of series: functional. The following applies: Homo sapiens.
Series [14] addresses T1, Cytochrome P450 2C9. This is another data set of the same source.
Series [15] addresses Cytochrome P450 2C19 (Homo sapiens, UniProt P33261). Description: Cytochrome panel assay with activity outcomes. Panel member name: p450-cyp2c19 Compounds with AC50 equal or less than 10 uM are considered active. The following applies: read-out: AC50. Type of series: functional.
The target of series [16] is T6, Cytochrome P450 1A2 (Homo sapiens, UniProt P05177).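 Further: PubChem cytochrome P450 panel assay, CYP1A2 panel member.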
T6 sequence (P05177 whole entry): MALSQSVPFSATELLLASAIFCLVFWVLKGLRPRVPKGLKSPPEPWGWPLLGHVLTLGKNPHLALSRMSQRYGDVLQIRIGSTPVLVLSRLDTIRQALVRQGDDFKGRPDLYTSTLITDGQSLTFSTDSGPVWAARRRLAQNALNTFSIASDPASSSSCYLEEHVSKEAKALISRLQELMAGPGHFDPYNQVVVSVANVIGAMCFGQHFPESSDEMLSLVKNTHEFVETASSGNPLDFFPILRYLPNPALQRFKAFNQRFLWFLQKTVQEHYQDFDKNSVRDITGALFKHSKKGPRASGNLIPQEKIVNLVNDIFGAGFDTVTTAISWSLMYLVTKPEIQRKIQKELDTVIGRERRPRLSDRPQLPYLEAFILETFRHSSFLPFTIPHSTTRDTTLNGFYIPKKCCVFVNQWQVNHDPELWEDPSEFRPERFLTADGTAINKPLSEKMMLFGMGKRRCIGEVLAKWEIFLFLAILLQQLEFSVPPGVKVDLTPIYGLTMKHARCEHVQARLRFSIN

Series [17] has as its target Dual specificity tyrosine-phosphorylation-regulated kinase 1A (Rattus norvegicus, UniProt Q63470). The class given is biochemical, Homo sapiens.
For series [18], the system named is Escherichia coli. Description: microbe, parasite or virus in culture.

Activity calls are given as the source filed them. Bounds are passed on as bounds.

T1 sequence (P11712 whole entry): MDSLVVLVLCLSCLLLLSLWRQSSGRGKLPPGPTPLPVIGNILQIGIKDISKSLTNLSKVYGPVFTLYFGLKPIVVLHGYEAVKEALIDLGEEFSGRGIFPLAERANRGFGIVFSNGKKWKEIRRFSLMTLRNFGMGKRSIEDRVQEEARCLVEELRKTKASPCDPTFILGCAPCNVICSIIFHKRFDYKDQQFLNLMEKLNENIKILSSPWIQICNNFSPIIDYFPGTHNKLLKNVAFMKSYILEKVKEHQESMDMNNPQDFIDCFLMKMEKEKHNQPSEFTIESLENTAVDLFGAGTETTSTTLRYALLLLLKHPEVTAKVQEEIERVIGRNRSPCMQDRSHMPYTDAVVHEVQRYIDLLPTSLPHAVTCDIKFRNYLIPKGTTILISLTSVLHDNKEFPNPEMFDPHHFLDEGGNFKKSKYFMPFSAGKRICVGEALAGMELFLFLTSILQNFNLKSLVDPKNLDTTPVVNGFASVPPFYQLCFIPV
Cytochrome P450 3A4, sequence (P08684 whole entry): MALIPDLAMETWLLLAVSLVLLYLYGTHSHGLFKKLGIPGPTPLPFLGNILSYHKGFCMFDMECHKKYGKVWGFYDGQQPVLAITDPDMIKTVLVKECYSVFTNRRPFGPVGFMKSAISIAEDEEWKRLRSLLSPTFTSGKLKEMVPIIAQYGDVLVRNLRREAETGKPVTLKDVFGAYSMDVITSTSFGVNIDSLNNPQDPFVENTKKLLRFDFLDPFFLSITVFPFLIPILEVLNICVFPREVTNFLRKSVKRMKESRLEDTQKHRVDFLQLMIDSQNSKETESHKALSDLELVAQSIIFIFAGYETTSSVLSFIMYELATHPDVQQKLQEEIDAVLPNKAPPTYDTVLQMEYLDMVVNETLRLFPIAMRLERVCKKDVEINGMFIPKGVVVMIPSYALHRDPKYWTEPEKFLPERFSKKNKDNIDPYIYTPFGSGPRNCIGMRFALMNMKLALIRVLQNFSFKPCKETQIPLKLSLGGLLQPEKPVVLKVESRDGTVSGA
Cytochrome P450 2C19, sequence (P33261 whole entry): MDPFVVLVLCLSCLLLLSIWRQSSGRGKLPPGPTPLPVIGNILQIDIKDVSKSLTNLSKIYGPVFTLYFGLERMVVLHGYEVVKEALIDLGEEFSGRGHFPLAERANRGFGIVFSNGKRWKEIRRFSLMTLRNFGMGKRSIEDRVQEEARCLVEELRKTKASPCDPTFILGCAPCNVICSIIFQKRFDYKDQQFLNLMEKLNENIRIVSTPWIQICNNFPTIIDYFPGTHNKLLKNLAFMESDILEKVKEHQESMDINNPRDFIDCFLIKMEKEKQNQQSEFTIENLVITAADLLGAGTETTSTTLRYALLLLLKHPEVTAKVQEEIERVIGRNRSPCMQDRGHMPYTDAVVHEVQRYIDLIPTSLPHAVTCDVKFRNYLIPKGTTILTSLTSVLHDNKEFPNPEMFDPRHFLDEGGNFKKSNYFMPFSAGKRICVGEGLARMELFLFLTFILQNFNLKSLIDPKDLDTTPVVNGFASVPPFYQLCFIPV

As usually defined, the AC50 is the concentration giving half of the maximal activity seen. With `C=CCNc1sc(C(=O)c2ccccc2)c(N)c1C#N`, the AC50 entry in [1] and in series [2] was “inconclusive” in each case.
For orientation: IC50 means the midpoint of a concentration-inhibition curve. One may read the EC50 as the concentration needed to bring the measured effect to its halfway point. On to `c1ccc(Nc2nc(NCc3ccco3)c3ccccc3n2)cc1`, for which the IC50 in [3] is 1.22 µM (active); in [4], > 20 µM (inactive); in [8] it was 1.08 µM (active). Besides, in series [5], the concentration giving a half-maximal response (EC50) was 12 µM (active). Besides, the AC50 in series [6] is 5.14 µM (active); in [7], 3.66 µM (active).
Take `CN(C)CCNC(=O)/C(=C/c1ccc(-c2ccc(Cl)cc2Cl)o1)NC(=O)c1ccccc1`: the concentration at half-maximal activity (AC50) is 18.9 µM (active) in [9], 4.97 µM (active) in series [11], 7.89 µM (active) in series [6] and 6.63 µM (active) in series [13]. Besides, the values for the EC50 in series [10] and in [12] were 5.71 µM (active) and 4.99 µM (active), respectively.
As for `O=c1[nH]c(=O)n(Cc2ccco2)c2c1C(C(F)(F)F)(C(F)(F)F)NC(CCC1CCCCC1)=N2`, the AC50 entry in series [1] was “inconclusive”; in series [14], 2.82 µM (inconclusive).
Taken in the same sequence, the figures for `CCC(CC)c1nnc(NC(=O)COc2ccc3c(C)cc(=O)oc3c2)s1` were “inconclusive” and 7.08 µM (inconclusive).
Turning to `COc1ccc(Oc2nc(C)cc(C)c2S(C)(=O)=O)cc1`, the AC50 entry in [1] is “inconclusive”; in series [15] it was 25.1 µM (inconclusive); in [14], 15.8 µM (inconclusive); in series [16], 11.2 µM (inconclusive).
Turning to `Cc1nc(COc2ccccc2Cl)sc1-c1ccnc(N)n1`, the AC50 in series [17] was 0.235 µM (active).
Regarding `COC(=O)C1=C(C)N(Cc2ccccc2)C(NCc2ccccc2)=N[C@H]1c1ccccc1`, the AC50 was 23.7 µM (active) in [9] and 18 µM (active) in series [11].
Consider `CCC(CC)C(=O)Nc1nnc(S(=O)(=O)N2CCCCCC2)s1`, for which, in series [18], the AC50 is 29.7 µM (active).
